In patent publication US20190008870A1, “COMPOSITIONS AND METHODS FOR LIPID METABOLISM DISORDER” (JANSFAT BIOTECHNOLOGY CO., LTD., priority 2016, published 2019):

Key:
HMG CoA reductase = test: HFD-induced HMG CoA reductase expression in liver; type: in vivo, mice
Description: In the experiment, C57BL/6J male mice (21-22 g), after fasting, were fed an HFD as a model of hyperlipidemia for 8 weeks. During the 2 month experiments, mice fasted for one night before the experiment was changed from a standard diet (STD) to an HFD and then the mice were randomly divided into 13 groups, including a protection group, 2 control and 10 treatment groups. Six mice were used in each group. […] Liver from the protection group supplemented with KMUP-1 HCl (1 mg/kg/day) were used to determine the HMG CoA reductase expression. Each group of mice had free access to drinking water from week 1 to week 14. Tap water was used to normalize mineral nutrition.
For the expression of SR-B1, HMGR, PPARγ and ROCK II, isolated liver tissues were cut into small chips and placed into an extraction buffer (Tris 10 mM, pH 7.0, NaCl 140 mM, PMSF 2 mM, DTT 5 mM, NP-40 0.5%, pepstatin A 0.05 mM and leupeptin 0.2 mM) for hepatic protein extraction, and centrifuged at 20,000×g for 30 minutes. The obtained protein extract was boiled to a ratio of 4:1 with a sample buffer (Tris 100 mM, pH 6.8, glycerol 20%, SDS 4% and bromophenol blue 0.2%). Electrophoresis was performed using 10% SDS-polyacrylamide gel (1 hour, 100 V, 40 mA, 20 μg protein per lane).
Separated proteins, after 3 repeated centrifugations to discard up-layer tissue lipid in purity, were transferred to PVDF membranes treated with 5% fat-free milk powder to block the nonspecific IgGs (90 minutes, 100 V) and incubated for 1 hour with specific protein antibody. The blot was then incubated with anti-mouse or anti-goat IgG linked to alkaline phosphatase (1:1000) for 1 hour.

IL-10 = test: IHC staining of IL-10 in epididymal fat pads; type: in vivo, mice; conditions: HFD 14 weeks, KMUP-1 2.5 mg/kg/day, Control 31
Description: (§1) For IHC of MMP-9/TNFα, HSL/p-HSL/ATGL and eNOS/IL-10, antigen retrieval of de-paraffinated sections was performed in Dako target retrieval solution, pH 9.0, in a vegetable steamer followed by the quenching of endogenous peroxidase activity with 3.0% H2O2 in methanol. Sections were then incubated with specific primary antibodies overnight at 4° C. in a humidified chamber. The antibodies used included rabbit polyclonal anti-eNOS (1:50 dilution) (Abcam, Cambridge, UK) or rabbit monoclonal anti-cleaved caspase-3 (1:50 dilution) (Cell Signaling, U.S.A.). The sections were then examined using a DAKO REAL EnVision™ Detection System kit (DAKO, Carpinteria, Calif., U.S.A.) and counterstained with hematoxylin. Images were obtained through a Nikon Eclipse TE200-S microscope.

ROCK II = ROCK II expression in HepG2 cells; type: cell-based
Description: (§2) The HepG2 hepatoma cell line was purchased from the American Type Culture Collection (ATCC, Manassas, Va., U.S.A.). Cells were cultured in Dulbecco's Modified Eagle's Medium (DMEM). […] Then the targeted drugs solution was incubated with the cells for 24 hours, followed by protein extraction. […] HepG2 cells were treated with various concentrations of targeted drugs for 24 hours. Reactions were terminated by washing twice with cold PBS, and the cells were then harvested. Proteins in the whole-cell lysate were homogenized in an ice-cold lysis buffer and a protease inhibitor (Sigma-Aldrich, St. Louis, Mo., U.S.A.). The homogenate was centrifuged at 90,000×g for 15 minutes at 4° C., and supernatant was recovered as the total cellular protein. Cytosolic and membrane fractions of HepG2 cells were prepared using a CNM (Cytosol Nuclear Membrane) compartmental protein extraction kit (BioChain Institute Inc., Hayward, Calif., U.S.A.) according to the manufacturer's instructions. All of the fractionated protein solutions were stored at -80° C. until analysis. To measure the expression levels of proteins by drugs, the total cell protein was extracted after incubation with treatments for 24 hours and then Western blotting analysis was performed as described previously.

eNOS = test: IHC staining of eNOS in epididymal fat pads; type: in vivo, mice; conditions: HFD 14 weeks, KMUP-1 2.5 mg/kg/day, Control 50.5
Description: as §1

ABCA1 [1] = test: HFD-induced ABCA1 expression in liver; type: in vivo, mice
PDE-5A = test: Expression of PDE-5A (Table 12); conditions: Control group 100 (%)
HSL = test: IHC staining of HSL in epididymal fat pads; type: in vivo, mice; conditions: HFD 14 weeks, KMUP-1 2.5 mg/kg/day, Control 34
Description: as §1

ABCA1 [2] = test: ABCA1 expression in HepG2 cells; type: cell-based; conditions: for ABCA1 expression: 10^−5 M, 24 hours, Control 100, Vehicle 110
Description: as §2, with “−80°” for “-80°”

PPARγ = PPARγ expression in HepG2 cells; type: cell-based; conditions: for PPARγ expression: 10^−5 M, 24 hours, Control 100, Vehicle 260
Description: as §2, with “−80°” for “-80°”

[3] = 10^−5 M, 24 hours, Control 100, Vehicle 88
[4] = HepG2 cells, GGPP (10 μM) + drug 10^−5 M
[5] = HepG2 cells, GGPP (10 μM) + drug 10^−6 M
[6] = HepG2 cells, GGPP (10 μM) + drug 10^−7 M
[7] = HepG2 cells, GGPP (10 μM) + drug 10^−8 M
[8] = HepG2 cells, GGPP (10 μM) + drug 10^−9 M
[9] = Simva 5 mg/kg, CTL 100 (Table 9)

## Cn1c(=O)c2c(ncn2CCN2CCN(c3ccccc3Cl)CC2)n(C)c1=O [KMUP-1, 7-[2-[4-(2-chlorophenyl)piperazinyl]ethyl]-1,3-dimethylxanthine]
HMG CoA reductase; HFD mice, 1 mg/kg, CTL 100
  HMGR: 43%
HMG CoA reductase; HFD mice, 2.5 mg/kg, CTL 100
  HMGR: 150%
HMG CoA reductase; HFD mice, 5 mg/kg, CTL 100
  HMGR: 140%
IL-10
  Immunorespons percentages, IL-10: 56%
ROCK II; [3]
  ROCK II expression: 41
ROCK II; FPP (10 μM) + drug 10^−5 M
  ROCKII: 60%
ROCK II; FPP (10 μM) + drug 10^−6 M
  ROCKII: 80%
ROCK II; FPP (10 μM) + drug 10^−7 M
  ROCKII: 88%
ROCK II; FPP (10 μM) + drug 10^−8 M
  ROCKII: 86%
ROCK II; FPP (10 μM) + drug 10^−9 M
  ROCKII: 84%
ROCK II; GGPP (10 μM) + drug 10^−5 M
  ROCKII: 40%
ROCK II; GGPP (10 μM) + drug 10^−6 M
  ROCKII: 60%
ROCK II; GGPP (10 μM) + drug 10^−7 M
  ROCKII: 108%
ROCK II; GGPP (10 μM) + drug 10^−8 M
  ROCKII: 120%
ROCK II; GGPP (10 μM) + drug 10^−9 M
  ROCKII: 112%
ROCK II; Rp-8-pCPT-cGMPS + KMUP-1 (10 μM), Control 100
  ROCK II expression: 170
eNOS
  Immunorespons percentages, eNOS: 39%
ABCA1 [1]; HFD mice, 1 mg/kg, CTL 100
  ABCA1: 98%
ABCA1 [1]; HFD mice, 2.5 mg/kg, CTL 100
  ABCA1: 190%
ABCA1 [1]; HFD mice, 5 mg/kg, CTL 100
  ABCA1: 200%
PDE-5A
  PDE-5A expression: 64.5 ± 4.5%
HSL
  Immunorespons percentages, HSL: 57%
ABCA1 [2]; HepG2, 10^−9-10^−5 M
  expression of ABCA1: increased
ABCA1 [2]; HepG2 cells
  ABCA1 expression: 200
ABCA1 [2]; HepG2 cells, FPP or GGPP (10 μM) + 10^−9-10^−5 M
  expression of ABCA1 suppressed by FPP or GGPP: reversed
PPARγ; HepG2, 10^−9-10^−5 M
  expression of PPARγ: increased
PPARγ; HepG2 cells
  increase of PPARγ: 2-3 folds
  PPARγ expression: 595
PPARγ; HepG2 cells, FPP (10 μM) + drug 10^−5 M
  PPARγ: 138%
PPARγ; HepG2 cells, FPP (10 μM) + drug 10^−6 M
  PPARγ: 140%
PPARγ; HepG2 cells, FPP (10 μM) + drug 10^−7 M
  PPARγ: 142%
PPARγ; HepG2 cells, FPP (10 μM) + drug 10^−8 M
  PPARγ: 84%
PPARγ; HepG2 cells, FPP (10 μM) + drug 10^−9 M
  PPARγ: 72%
PPARγ; [4]
  PPARγ: 120%
PPARγ; [5]
  PPARγ: 106%
PPARγ; [6]
  PPARγ: 108%
PPARγ; [7]
  PPARγ: 90%
PPARγ; [8]
  PPARγ: 78%

## CCC(C)(C)C(=O)O[C@H]1C[C@@H](C)C=C2C=C[C@H](C)[C@H](CC[C@@H]3C[C@@H](O)CC(=O)O3)[C@H]21 [Simva, Simvastatin, reference compound]
HMG CoA reductase; [9]
  HMGR: 100%
ROCK II; [3]
  ROCK II expression: 45
ROCK II; GGPP (10 μM) + drug 10^−5 M
  ROCKII: 210%
ROCK II; GGPP (10 μM) + drug 10^−6 M
  ROCKII: 220%
ROCK II; GGPP (10 μM) + drug 10^−7 M
  ROCKII: 200%
ROCK II; GGPP (10 μM) + drug 10^−8 M
  ROCKII: 214%
ROCK II; GGPP (10 μM) + drug 10^−9 M
  ROCKII: 210%
ABCA1 [1]; [9]
  ABCA1: 100%
ABCA1 [2]; HepG2 cells
  ABCA1 expression: 146
PPARγ; HepG2 cells
  PPARγ expression: 350
PPARγ; [4]
  PPARγ: 46%
PPARγ; [5]
  PPARγ: 46%
PPARγ; [6]
  PPARγ: 44%
PPARγ; [7]
  PPARγ: 40%
PPARγ; [8]
  PPARγ: 46%
